Results on 23 molecules are retold here after patent publication US9452986B2, “6-heteroaryloxy- or 6-aryloxy-quinoline-2-carboxamides and method of use” (AbbVie Inc., priority 2014, dated 2016).

Read-outs that look alike come from different tables or passages of the source.

Assay [1] has as its target recombinant human Nav1.7 (Homo sapiens (Human), UniProt Q15858). In words: FRET-based membrane potential assay, recombinant human sodium channel Nav1.7. It is filed as cell-based. In a few lines: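 Channel activation used veratridine at its EC80, set by a dilution curve each experiment, together with Leiurus scorpion venom, added 3 min after compound. Membrane-potential ratio signals from FLIPR Tetra in HEPES-buffered HBSS were fitted to a four-parameter Hill equation for percent inhibition and IC50.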

Assay [2] relates to osteoarthritic rats. In words: Osteoarthritic (OA) pain induced by sodium monoiodoacetate (MIA), hind limb grip force. It is filed as in vivo, rat. Particulars: Rattus norvegicus, 480 h, rat, 20 days following MIA injection, hind limb grip force, read-out: OA MPE; for inhibition in vivo at 10 mg/kg: OA dose 10 mg/kg; for inhibition in vivo at 30 mg/kg: OA dose 30 mg/kg. How it is done:
Osteoarthritic (OA) Pain Induced by Sodium Monoiodoacetate (MIA)
Pain behavior was assessed by measurement of hind limb grip force (GF) in adult osteoarthritic rats. Male Sprague Dawley rats, obtained from Charles River Laboratories, (Wilmington, Mass.), weighing 150-175 g, were injected in the unilateral knee join with a single intra-articular injection of sodium monoiodoacetate (MIA, 3 mg/rat). All rats were tested at 20 days following MIA injection. A behavioral measure of activity-induced pain was carried out. Measurements of the peak hind limb grip force were conducted by recording the maximum compressive force (CFmax), in grams of force, exerted on a hind limb strain gauge setup, in a commercially available grip force measurement system (Columbus Instruments, Columbus, Ohio).
During testing, each rat was gently restrained by grasping it around its rib cage and then allowed to grasp the wire mesh frame attached to the strain gauge. The experimenter then moved the animal in a rostral-to-caudal direction until the grip was broken. Each rat was sequentially tested twice at an approximately 2-3 minute interval to obtain a raw mean grip force (CFmax). This raw mean grip force data was in turn converted to a maximum hindlimb cumulative compressive force (CFmax), as the grams of force/kg of body weight, for each animal.
For evaluating the compound effects, the hind limb grip force was conducted 20 days following the intra-articular injection of MIA. A group of age-matched naïve (not injected with MIA) animals was added as a comparator to the drug-dosed groups. The vehicle control response for each group of MIA-treated animals was defined as the 0% response (0% effect), whereas the naïve control group was defined as the normal response and as 100% effect. The % effect for each dose group was expressed as % return of response to normalcy, compared to the naïve group. A percent maximal possible effect (% MPE) of testing compound was calculated according to the formula: (Treatment CFmax−Vehicle CFmax)/Vehicle CFmax]×100). Higher % effect numbers indicate increased relief from the pain in the model, with 100% indicating a return to the level of response seen in normal (non-osteoarthritic) animals. All experiments evaluating drug effects in this model were conducted in a randomized blinded fashion.
The animals were housed in Association for Assessment and Accreditation of Laboratory Animal Care (AAALAC) approved facilities at AbbVie Inc. in a temperature-regulated environment under a controlled 12-hour light-dark cycle, with lights on at 6:00 a.m. Food and water were available ad libitum at all times except during testing. All testing was done following procedures outlined in protocols approved by AbbVie Inc.'s Institutional Animal Care and Use Committee.

Setting [3] is: read-out: FRET-Membrane Potential Nav1.7 IC50.
Where [4] appears, read: HEK293 cells stably expressing recombinant human Nav1.7, veratridine + scorpion venom depolarization, read-out: FRET-Membrane Potential Nav1.7 IC50.

Sequence of recombinant human Nav1.7 (Q15858 whole entry): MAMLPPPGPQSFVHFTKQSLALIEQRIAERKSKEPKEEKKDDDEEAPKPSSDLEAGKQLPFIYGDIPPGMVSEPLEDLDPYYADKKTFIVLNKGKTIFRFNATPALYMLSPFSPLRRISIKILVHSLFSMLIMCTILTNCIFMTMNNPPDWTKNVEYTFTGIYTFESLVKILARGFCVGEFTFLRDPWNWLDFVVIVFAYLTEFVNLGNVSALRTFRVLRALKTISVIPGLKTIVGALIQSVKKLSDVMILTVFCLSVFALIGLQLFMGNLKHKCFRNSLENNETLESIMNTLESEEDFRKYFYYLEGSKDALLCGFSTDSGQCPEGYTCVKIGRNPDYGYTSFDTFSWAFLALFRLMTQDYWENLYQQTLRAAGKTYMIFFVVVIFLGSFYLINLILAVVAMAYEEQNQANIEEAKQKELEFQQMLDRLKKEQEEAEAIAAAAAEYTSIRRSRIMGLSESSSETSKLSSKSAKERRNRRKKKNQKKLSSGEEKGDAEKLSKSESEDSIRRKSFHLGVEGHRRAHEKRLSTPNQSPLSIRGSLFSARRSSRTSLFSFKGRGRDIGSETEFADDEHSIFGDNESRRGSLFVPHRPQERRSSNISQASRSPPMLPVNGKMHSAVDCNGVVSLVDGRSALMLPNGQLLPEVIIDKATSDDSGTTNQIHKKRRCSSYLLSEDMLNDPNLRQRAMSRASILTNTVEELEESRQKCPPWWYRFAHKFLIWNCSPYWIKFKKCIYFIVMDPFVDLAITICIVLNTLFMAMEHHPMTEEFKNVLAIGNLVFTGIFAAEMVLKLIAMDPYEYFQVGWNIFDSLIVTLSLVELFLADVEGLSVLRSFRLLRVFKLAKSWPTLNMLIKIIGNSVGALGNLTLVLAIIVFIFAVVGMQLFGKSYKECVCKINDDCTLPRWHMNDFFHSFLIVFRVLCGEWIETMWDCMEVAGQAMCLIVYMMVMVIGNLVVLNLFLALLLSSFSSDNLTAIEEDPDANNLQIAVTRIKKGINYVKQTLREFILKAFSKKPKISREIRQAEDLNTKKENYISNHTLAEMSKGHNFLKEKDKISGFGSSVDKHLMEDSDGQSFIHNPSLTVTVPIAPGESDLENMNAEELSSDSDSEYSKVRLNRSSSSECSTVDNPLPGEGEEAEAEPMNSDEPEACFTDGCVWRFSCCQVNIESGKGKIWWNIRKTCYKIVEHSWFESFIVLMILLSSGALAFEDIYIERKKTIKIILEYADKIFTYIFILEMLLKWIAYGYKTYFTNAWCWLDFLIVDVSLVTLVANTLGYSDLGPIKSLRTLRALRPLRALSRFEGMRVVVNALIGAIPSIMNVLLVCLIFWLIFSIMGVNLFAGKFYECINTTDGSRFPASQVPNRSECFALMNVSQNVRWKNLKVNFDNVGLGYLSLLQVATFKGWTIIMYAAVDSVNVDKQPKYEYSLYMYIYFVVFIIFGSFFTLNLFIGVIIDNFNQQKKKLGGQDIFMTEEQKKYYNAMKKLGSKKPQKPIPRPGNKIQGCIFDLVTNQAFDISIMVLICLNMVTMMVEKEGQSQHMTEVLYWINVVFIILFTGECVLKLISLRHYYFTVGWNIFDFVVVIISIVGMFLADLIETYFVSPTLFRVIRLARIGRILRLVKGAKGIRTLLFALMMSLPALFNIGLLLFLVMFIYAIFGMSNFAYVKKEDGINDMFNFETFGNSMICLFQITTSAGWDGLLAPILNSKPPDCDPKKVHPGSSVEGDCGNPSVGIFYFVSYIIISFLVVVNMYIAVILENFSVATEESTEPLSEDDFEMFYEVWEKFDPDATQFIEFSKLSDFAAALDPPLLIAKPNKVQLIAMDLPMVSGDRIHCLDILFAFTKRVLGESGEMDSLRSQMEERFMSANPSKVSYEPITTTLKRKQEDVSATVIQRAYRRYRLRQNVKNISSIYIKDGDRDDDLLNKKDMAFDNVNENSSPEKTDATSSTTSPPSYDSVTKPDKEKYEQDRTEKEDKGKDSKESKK

One may read the IC50 as the concentration that inhibits the measured activity by half. Regarding `N#CC1CN(C(=O)c2ccc3cc(Oc4ccc(C(F)(F)F)cn4)ccc3n2)CCN1` (stereo not shown) [Example 483, 4-[(6-{[5-(trifluoromethyl)pyridin-2-yl]oxy}quinolin-2-yl)carbonyl]piperazine-2-carbonitrile], the IC50 in assay [1] (setting [3]) is 3610 nM. Besides, the inhibition in vivo at 10 mg/kg in assay [2] came out at 55%.
For `C[C@@H](O)CNC(=O)c1ccc2cc(Oc3ccc(C(F)(F)F)cn3)ccc2n1` [Example 38, N-[(2R)-2-hydroxypropyl]-6-{[5-(trifluoromethyl)pyridin-2-yl]oxy}quinoline-2-carboxamide], in that order: 311 nM and 30%.
Turning to `CN(C)C(=O)CNC(=O)c1ccc2cc(Oc3ccc(C(F)(F)F)nc3)ccc2n1` [Example 42, N-[2-(dimethylamino)-2-oxoethyl]-6-{[6-(trifluoromethyl)pyridin-3-yl]oxy}quinoline-2-carboxamide], the IC50 in assay [1] (setting [4]) amounted to 1790 nM. The inhibition in vivo at 10 mg/kg in assay [2] was found to be 64%.
In the same order, the values of `O=C(c1ccc2cc(Oc3ccc(C(F)(F)F)cn3)ccc2n1)N1C[C@@H](O)[C@@H](O)C1` [Example 9, [cis-3,4-dihydroxypyrrolidin-1-yl](6-{[5-(trifluoromethyl)pyridin-2-yl]oxy}quinolin-2-yl)methanone] are 2080 nM and 68%.
`CN(CC(F)(F)F)C(=O)c1ccc2cc(Oc3ccc(C(F)(F)F)cn3)ccc2n1` [Example 616, N-methyl-N-(2,2,2-trifluoroethyl)-6-{[5-(trifluoromethyl)pyridin-2-yl]oxy}quinoline-2-carboxamide]: the IC50 in assay [1] (setting [4]) came to 2630 nM. Also, the inhibition in vivo at 30 mg/kg in assay [2] is 28%.
Regarding `O=C(NC1CCS(=O)(=O)CC1)c1ccc2cc(Oc3ccc(C(F)(F)F)cn3)ccc2n1` [Example 15, N-(1,1-dioxidotetrahydro-2H-thiopyran-4-yl)-6-{[5-(trifluoromethyl)pyridin-2-yl]oxy}quinoline-2-carboxamide], the IC50 in assay [1] (setting [4]) is 1090 nM. Moreover, the inhibition in vivo at 10 mg/kg in assay [2] came to 52%.
For the molecule `O=C(NC1CC(=O)N(c2ccc(F)cc2)C1)c1ccc2cc(Oc3ccc(C(F)(F)F)cn3)ccc2n1` (stereo not shown) [Example 54, N-[1-(4-fluorophenyl)-5-oxopyrrolidin-3-yl]-6-{[5-(trifluoromethyl)pyridin-2-yl]oxy}quinoline-2-carboxamide], in assay [1] (setting [4]), the IC50 was 409 nM. For the same molecule, in assay [2], the inhibition in vivo at 10 mg/kg turned out to be 21%.
Regarding `C[C@@H]1CN(C(=O)c2ccc3cc(Oc4ccc(C(F)(F)F)cn4)ccc3n2)CCN1` [Example 12, [(3R)-3-methylpiperazin-1-yl](6-{[5-(trifluoromethyl)pyridin-2-yl]oxy}quinolin-2-yl)methanone], the IC50 in assay [1] (setting [3]) was 348 nM. In addition, the inhibition in vivo at 10 mg/kg in assay [2] is 79%.
Regarding `C[C@H]1CN(C(=O)c2ccc3cc(Oc4ccc(C(F)F)cn4)ccc3n2)CCN1` [Example 43, (6-{[5-(difluoromethyl)pyridin-2-yl]oxy}quinolin-2-yl) [(3S)-3-methylpiperazin-1-yl]methanone], the IC50 in assay [1] (setting [4]) stood at 3060 nM. In assay [2], the inhibition in vivo at 10 mg/kg came to 71%.
For `CO[C@H]1C[C@@H](NC(=O)c2ccc3cc(Oc4ccc(C(F)(F)F)cn4)ccc3n2)C1` [Example 41, N-(cis-3-methoxycyclobutyl)-6-{[5-(trifluoromethyl)pyridin-2-yl]oxy}quinoline-2-carboxamide], in that order: 1270 nM and 67%.
As for `CC[C@@H]1CN(C(=O)c2ccc3cc(Oc4ccc(C(F)(F)F)cn4)ccc3n2)CCN1` [Example 16, [(3R)-3-ethylpiperazin-1-yl](6-{[5-(trifluoromethyl)pyridin-2-yl]oxy}quinolin-2-yl)methanone], the IC50 in assay [1] (setting [4]) is 406 nM. In addition, the inhibition in vivo at 10 mg/kg in assay [2] amounted to 57%.
For the molecule `CC(C)(O)CNC(=O)c1ccc2cc(Oc3ccc(C(F)(F)F)cn3)ccc2n1` [Example 30, N-(2-hydroxy-2-methylpropyl)-6-{[5-(trifluoromethyl)pyridin-2-yl]oxy}quinoline-2-carboxamide], the IC50 in assay [1] (setting [4]) is 793 nM. Also, in assay [2], the inhibition in vivo at 10 mg/kg was determined as 66%.
Regarding `O=C1CC(NC(=O)c2ccc3cc(Oc4ccc(C(F)(F)F)cn4)ccc3n2)CCN1` (stereo not shown) [Example 40, N-(2-oxopiperidin-4-yl)-6-{[5-(trifluoromethyl)pyridin-2-yl]oxy}quinoline-2-carboxamide], the IC50 in assay [1] (setting [3]) was found to be 285 nM. Also, the inhibition in vivo at 10 mg/kg in assay [2] was 59%.
With `O=C(c1ccc2cc(Oc3ccc(C(F)(F)F)cn3)ccc2n1)N1CC(=O)N2CCC[C@H]2C1` [Example 27, (8aS)-2-[(6-{[5-(trifluoromethyl)pyridin-2-yl]oxy}quinolin-2-yl)carbonyl]hexahydropyrrolo[1,2-a]pyrazin-4(1H)-one], the IC50 in assay [1] (setting [4]) turned out to be 1100 nM. Also, the inhibition in vivo at 10 mg/kg in assay [2] was found to be 49%.
As to `O=C(NC1CC[S+]([O-])CC1)c1ccc2cc(Oc3ccc(C(F)(F)F)cn3)ccc2n1` (stereo not shown) [Example 32, N-(1-oxidotetrahydro-2H-thiopyran-4-yl)-6-{[5-(trifluoromethyl)pyridin-2-yl]oxy}quinoline-2-carboxamide], the IC50 in assay [1] (setting [3]) worked out at 535 nM. Also, the inhibition in vivo at 10 mg/kg in assay [2] amounted to 23%.
As for `O=C(N[C@@H]1CS(=O)(=O)C[C@H]1O)c1ccc2cc(Oc3ccc(C(F)(F)F)cn3)ccc2n1` [Example 24, N-[(3S,4S)-4-hydroxy-1,1-dioxidotetrahydrothiophen-3-yl]-6-{[5-(trifluoromethyl)pyridin-2-yl]oxy}quinoline-2-carboxamide], the IC50 in assay [1] (setting [3]) was 1580 nM. Further, in assay [2], the inhibition in vivo at 10 mg/kg was 62%.
Consider `NC1CN(C(=O)c2ccc3cc(Oc4ccc(C(F)(F)F)cn4)ccc3n2)C1` [Example 8, (3-aminoazetidin-1-yl)(6-{[5-(trifluoromethyl)pyridin-2-yl]oxy}quinolin-2-yl)methanone], for which the IC50 in assay [1] (setting [4]) was determined as 232 nM. Further, in assay [2], the inhibition in vivo at 30 mg/kg is 91%.
For `O=C(N[C@H]1C[C@@H](O)C1)c1ccc2cc(Oc3ccc(C(F)(F)F)cn3)ccc2n1` [Example 34, N-(cis-3-hydroxycyclobutyl)-6-{[5-(trifluoromethyl)pyridin-2-yl]oxy}quinoline-2-carboxamide], the IC50 in assay [1] (FRET-Membrane Potential Nav1.7 IC50) is 841 nM. Also, in assay [2], the inhibition in vivo at 10 mg/kg was found to be 41%.
In the case of `O=C(N[C@H]1CS(=O)(=O)C[C@H]1O)c1ccc2cc(Oc3ccc(C(F)(F)F)cn3)ccc2n1` [Example 26, N-[(3R,4S)-4-hydroxy-1,1-dioxidotetrahydrothiophen-3-yl]-6-{[5-(trifluoromethyl)pyridin-2-yl]oxy}quinoline-2-carboxamide], in assay [1] (setting [3]), the IC50 worked out at 1990 nM. The inhibition in vivo at 10 mg/kg in assay [2] turned out to be 67%.
For `O=C(c1ccc2cc(Oc3ccc(C(F)(F)F)cn3)ccc2n1)N1CCN[C@@H](CO)C1` [Example 17, [(3R)-3-(hydroxymethyl)piperazin-1-yl](6-{[5-(trifluoromethyl)pyridin-2-yl]oxy}quinolin-2-yl)methanone], in assay [1] (setting [3]), the IC50 was found to be 3120 nM. For the same molecule, the inhibition in vivo at 10 mg/kg in assay [2] was 19%.
For `C[C@H]1CN(C(=O)c2ccc3cc(Oc4ccc(C(F)(F)F)cn4)ccc3n2)CCN1` [Example 13, [(3S)-3-methylpiperazin-1-yl](6-{[5-(trifluoromethyl)pyridin-2-yl]oxy}quinolin-2-yl)methanone], in that order: 454 nM and 44%.
Turning to `CN(C)C(=O)CNC(=O)c1ccc2cc(Oc3ccc(C(F)F)cn3)ccc2n1` [Example 441, 6-{[5-(difluoromethyl)pyridin-2-yl]oxy}-N-[2-(dimethylamino)-2-oxoethyl]quinoline-2-carboxamide], in assay [1] (setting [3]), the IC50 worked out at 1150 nM. In assay [2], the inhibition in vivo at 10 mg/kg worked out at 22%.
On to `COCC1CN(C(=O)c2ccc3cc(Oc4ccc(C(F)(F)F)cn4)ccc3n2)C1` [Example 60, [3-(methoxymethyl)azetidin-1-yl](6-{[5-(trifluoromethyl)pyridin-2-yl]oxy}quinolin-2-yl)methanone], for which, in assay [1] (setting [4]), the IC50 worked out at 1260 nM. For the same molecule, the inhibition in vivo at 10 mg/kg in assay [2] is 23%.
